For orientation: inhibition means how much of the control response was suppressed. A word on the IC50: it is the concentration needed to halve the response being measured. What is called Ki is a dissociation constant, usually derived from enzyme kinetics or from competition with a known ligand. Low readings indicate higher affinity, high ones lower affinity.

These results are taken from patent US5310884A (Merck Frosst Canada, Inc., priority 1992, dated 1994).

Like-named read-outs stand apart in the source and are kept apart here.

Test [1] has as its target T1, LTD4 receptor (guinea-pig lung membranes) (Cavia porcellus, UniProt Q2NNR5).
T1 sequence (Q2NNR5 1-340): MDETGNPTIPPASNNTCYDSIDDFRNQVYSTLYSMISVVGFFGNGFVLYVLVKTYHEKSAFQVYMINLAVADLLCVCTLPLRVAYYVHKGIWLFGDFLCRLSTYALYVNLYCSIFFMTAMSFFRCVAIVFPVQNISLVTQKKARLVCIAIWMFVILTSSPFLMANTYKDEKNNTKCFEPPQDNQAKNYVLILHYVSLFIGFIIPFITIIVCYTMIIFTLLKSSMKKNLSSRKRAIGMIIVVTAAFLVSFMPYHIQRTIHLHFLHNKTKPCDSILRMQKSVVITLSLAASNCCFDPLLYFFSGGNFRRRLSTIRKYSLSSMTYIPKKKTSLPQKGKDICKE
Nature of the test: biochemical. As to conditions: for effect of divalent cation on [3H]LTD4 specific binding: CaCl2 at concentrations above 30 mM, MgCl2 instead of CaCl2. As to the method: (§1) Guinea pigs (male; 350 g) were sacrificed by cervical dislocation and the lung tissues removed. All subsequent procedures were performed either on ice or at 4° C. Connective tissue, trachea, large blood vessels and major airways were dissected away and the remaining lung tissue (primarily parenchyma) was finely minced prior to homogenisation in 10 vol of 10 mM HEPES/KOH pH 7.4, containing 0.25 M sucrose, 2 mM EDTA, 2 mM phenylmethylsulphonyl fluoride, 10 μg/ml pepstatin, 10 μg/ml leupeptin and 10 μM E-64, using 5 s bursts of a polytron (Brinkman Instruments). The homogenate was subjected to differential centrifugation at 1000×g for 10 min, 10,000×g for 10 min and 100,000×g for 40 min. The resulting 100,000×g pellets were resuspended in 10 mM HEPES/KOH pH 7.4, containing 10% (w/v) sucrose, at a final protein concentration of 1-2 mg/ml. This tissue suspension was carefully layered over 10 mM HEPES/KOH pH 7.4 containing 40% (w/v) sucrose in a 3:2 (v/v) ratio. The discontinuous sucrose gradient was centrifuged at 83,000×g for 60 min. The membrane fraction located at the interface of the sucrose gradient layers was recovered, diluted 10-fold in 10 mM HEPES/KOH pH 7.4 and further centrifuged at 150,000×g for 40 min. The final membrane pellets were resuspended in 10 mM HEPES/KOH pH 7.4 at a protein concentration of 2-4 mg/ml and stored at […].
Competition experiments were analysed and IC50 values derived using the Kinetic, EBDA, Ligand, […] program from Biosoft (McPherson, 1985).
(§2) FIG. 4. […] Radiolabelled proteins were resolved by SDS-PAGE and visualized by autoradiography. […] In addition, photoaffinity labelled membranes were subjected to immunoprecipitation with RAGpAlb (Lane C) and non-immune rabbit serum (Lane D), as described in the Methods. The migration of molecular weight standards is indicated on the left. FIGS. 5(A)-5(C). […] Results are expressed as percentage of maximum specific binding as a function of CaCl2 concentration. […] Only the results for total binding are shown.
(§3) Results are expressed as percentage of maximum specific binding as a function of nucleotide concentration. […] Only the results for total binding are shown.
(§4) Results are expressed as percentage of maximum specific binding as a function of cation concentration. […] Only the results for total binding are shown.

For test [2], the target named is T1, LTD4 receptor (guinea-pig lung membranes). As to conditions: for effect of divalent cation on [125I]Azido-LTD4 specific binding: CaCl2 at concentrations above 30 mM, MgCl2 instead of CaCl2. As to the method: as §1
Filters were then washed with 16 ml of 10 mM HEPES/KOH, pH 7.4 containing 0.01% (w/v) bovine serum albumin, at 4° C.
as §2, §3, §4

Test [3] has as its system 45 kDa guinea-pig lung membrane protein. Put plainly: [125I]Azido-LTD4 photoaffinity labelling of the 45 kDa guinea-pig lung membrane protein (SDS-PAGE, autoradiography, laser densitometry). In kind it is binding. As to conditions: for effect of divalent cation on photolabelling of the 45 kDa protein: CaCl2, same concentration range, MgCl2 instead of CaCl2. As to the method: as §1
(§5) Samples were incubated for 60 min at room temperature. […] The residual samples were then transferred to 25 mm diameter cluster plate well for photolysis. The cluster plates were placed on aluminium blocks, pre-cooled to -20° C., and illuminated from above with a 40 W ultraviolet light source (Phillips, γmax =350 nm) at a distance of 10 cm for 2 min. The guinea-pig lung membranes were then recovered from 1 ml sample aliquots by centrifugation at 150,000×g for 15 min at 4° C. and solubilized in sodium dodecyl sulphate polyacrylamide gel electrophoresis (SDS-PAGE) sample buffer prior to resolution of the proteins by SDS-PAGE (Laemmli, 1970). Protein bands were visualized by Coomassie Blue staining while radiolabelled proteins were identified by autoradiography of dried gels and quantified by laser densitometry (Molecular Dynamics, ImageQuant).
as §2, §3, §4

Test [4] has as its target T2, 45 kDa guinea-pig lung membrane protein (Cavia porcellus, UniProt Q2NNR5).
T2 construct: Guinea pigs (male; from tissue; host or cells: guinea-pig lung (primarily parenchyma), sucrose-gradient membrane fraction
T2 sequence (Q2NNR5 1-340): T1 sequence (Q2NNR5 1-340)
Described as above. In kind it is binding. As to conditions: for IC50: laser densitometry, leukotrienes and antagonists, read-out: IC50 for inhibition of photolabelling of the 45 kDa protein. As to the method:
as §1, §5, §2, §3, §4

For test [5], the target named is T1, LTD4 receptor (guinea-pig lung membranes). Nature of the test: Saturation binding to guinea-pig lung membranes, Scatchard plot analysis. Further details: Guinea pigs (male; 350 g) were sacrificed by cervical dislocation and the lung tissues removed; from tissue; host or cells: guinea-pig lung (primarily parenchyma), sucrose-gradient membrane fraction. As to conditions: Scatchard, single site.

The target is the same in test [6]. Put plainly: Rates of association and dissociation of radioligand binding to guinea-pig lung membranes. Further details: Guinea pigs (male; from tissue; host or cells: guinea-pig lung (primarily parenchyma), sucrose-gradient membrane fraction. As to conditions: identical experimental conditions; data not shown. The protocol:
FIG. 3. […] Aliquots (500 μl) were removed and filtered at the required time intervals.

In the case of `Nc1ncnc2c1ncn2[C@@H]1O[C@H](COP(=O)(O)OP(=O)(O)OP(O)(O)=S)[C@@H](O)[C@H]1O` [ATPγS], in test [1] (ATPγS), the “effect of nucleotide analogue on [3H]LTD4 specific binding” value is reported as “no detectable effect”. Also, the “potency relative to GTPγS in inhibiting [125I]Azido-LTD4 specific binding (fold less potent)” value in test [2] (ATPγS vs GTPγS) is 100 fold.
As for `[Ca+2].[Cl-].[Cl-]` [CaCl2], in test [1], the “concentration for optimal [3H]LTD4 specific binding” value lay within 3 to 30 mM and the “effect of divalent cation on [3H]LTD4 specific binding” value was “higher concentrations proving inhibitory”. In test [2], the “concentration for optimal [125I]Azido-LTD4 specific binding” value fell in the range of 3 to 30 mM and the “effect of divalent cation on [125I]Azido-LTD4 specific binding” value is recorded as “higher concentrations proving inhibitory”. In addition, in test [3], the “concentration for optimal radiolabelling of the 45 kDa protein” value lay within 3 to 30 mM and the “effect of divalent cation on photolabelling of the 45 kDa protein” value is reported as “enhanced”.
As to `Nc1nc2c(ncn2[C@@H]2O[C@H](COP(=O)(O)OP(=O)(O)OP(O)(O)=S)[C@@H](O)[C@H]2O)c(=O)[nH]1` [GTPγS], the inhibition at 1000 µM in test [1] (read-out: inhibition of [3H]LTD4 specific binding) was 60%. Moreover, the “inhibition of [125I]Azido-LTD4 specific binding” value in test [2] (10 μM GTPγS) is recorded as “complete inhibition”. Moreover, the “potency relative to ATPγS in inhibiting photolabelling of the 45 kDa protein (fold more potent)” value in test [3] (GTPγS vs ATPγS) worked out at 100 fold. Further, the concentration for half-maximal inhibition (IC50) in test [3] (nucleotide analogue, read-out: IC50 for inhibition of photolabelling of the 45 kDa protein) was found to be 1 µM.
Take `[Cl-].[K+]` [KCl]: the “inhibition of [3H]LTD4 specific binding” value in test [1] (KCl, 0-100 mM) is “did not significantly inhibit”. For the same compound, the “inhibition of [125I]Azido-LTD4 specific binding” value in test [2] (KCl, 0-100 mM) is reported as “did not significantly inhibit”. Further, in test [3] (KCl, 0-100 mM), the “inhibition of photolabelling of the 45 kDa protein” value was “did not significantly inhibit”.
Take `CCCCC/C=C\C[C@@H](O)/C=C/C=C/C=C\[C@@H](O)CCCC(=O)O` [LTB4]: the “potency relative to LTD4 (fold less potent), [3H]LTD4 specific binding” value in test [1] (vs LTD4) is “approximately 10000 fold”. In test [2] (vs LTD4), the “potency relative to LTD4 (fold less potent), [125I]Azido-LTD4 specific binding” value is “approximately 10000 fold”. Further, the “concentration at which it competes for radiolabelling of the 45 kDa protein” value in test [4] (LTB4) was found to be 10 µM.
Consider `CN(C)C(=O)CCSC(SCCC(=O)O)c1cccc(/C=C/c2ccc3ccc(Cl)cc3n2)c1` (centres unmarked) [MK-571], for which the half-inhibitory concentration (IC50) amounted to 0.002 µM in test [1]; 0.003 µM in test [2] (read-out: IC50 for competition with [125I]Azido-LTD4 specific binding, leukotrienes and antagonists, LTC4 with 50 mM serine-borate); 0.001 µM in test [4].
Take `CC(C)c1ccc2c(c1)c(SC(C)(C)C)c(CC(C)(C)C(=O)O)n2Cc1ccc(Cl)cc1` [MK-886]: the “concentration producing inhibition of [3H]LTD4 specific binding” value in test [1] (weak competing ligand) is > 1 µM. Also, the “concentration producing inhibition of [125I]Azido-LTD4 specific binding” value in test [2] (weak competing ligand) is > 1 µM. Besides, in test [4] (MK-886, 0-10 μM), the “competition for radiolabelling of the 45 kDa protein” value is “only able to compete for the selective radiolabelling of the 45 kDa protein at similarly high ligand concentrations”.
Turning to `[Cl-].[Cl-].[Mg+2]` [MgCl2], in test [1], the “effect of divalent cation on [3H]LTD4 specific binding” value is “Identical results”. Further, in test [2], the “effect of divalent cation on [125I]Azido-LTD4 specific binding” value is given as “Identical results”. Moreover, in test [3], the “effect of divalent cation on photolabelling of the 45 kDa protein” value is listed as “Identical results”.
In the case of `[Cl-].[Na+]` [NaCl], the half-maximal inhibitory concentration (IC50) was ~30000 µM in test [1] (read-out: IC50 for inhibition of [3H]LTD4 specific binding, monovalent cation); ~30000 µM in test [2] (read-out: IC50 for inhibition of [125I]Azido-LTD4 specific binding, monovalent cation); ~30000 µM in test [3] (monovalent cation, read-out: IC50 for inhibition of radiolabelling of the 45 kDa protein).
Turning to `CCCCC/C=C\C\C=C/C=C/C=C/[C@@H](SCC(N)C(=O)NCC(=O)O)[C@@H](O)CCCC(=O)O` (some centres unmarked) [[^3 H]LTD4], the “maximum number of binding sites (Bmax)” value in test [5] is given as 2000 fmol/mg protein. For the same compound, the “association and dissociation profile compared with [125I]Azido-LTD4” value in test [6] is listed as “identical”.
In the case of `CCCCC/C=C\C\C=C/C=C/C=C/[C@@H](SC[C@H](NC(=O)CCCCCNC(=O)c1cc(I)c(N=[N+]=[N-])cc1O)C(=O)NCC(=O)O)[C@@H](O)CCCC(=O)O` [^127 lAzido-LTD4], the Ki in test [1] stood at 0.0017 µM. Further, the “Ki relative to LTD4 (fold higher)” value in test [1] (vs Ki of LTD4, same assay) came to 5 fold.
For `COc1cc(C(=O)NS(=O)(=O)c2ccccc2C)ccc1Cc1cn(C)c2ccc(NC(=O)OC3CCCC3)cc12` [lCl 204,219], in test [4], the half-maximal inhibitory concentration (IC50) worked out at 0.0003 µM.
